From PMC12186843, “Targeting GABAergic Hypofunction Associated with Schizophrenia: Identification of α1β2γ2GABA‑A Receptor Ligands with Neuroprotective and Antipsychotic Properties” (ACS Chemical Neuroscience, 2025)
“And” between values parts separate entries of the source, which are not always exact repeats. Equal values may be shown once. Where a name gives a salt, the structure may show the parent alone.

Tests used:
GABA-A receptor = assay: Radioligand binding at the GABA-A receptor; set-up: species or system rat; conditions: mean of two-three independent experiments; read-out: GABA-A Ki ± SEM
Procedure: The study was conducted in accordance with previously established protocols, and performed in duplicate. Rat brains were homogenized and prepared following the described methodologies. The assay was carried out directly on 96-well microplates containing 50 mM Tris-HCl buffer (pH 7.4) in a total volume of 300 μL. […] To determine nonspecific binding, 100 μM GABA was included in the mixture. The 96-well microplates were incubated at 0 °C for 10 min, followed by rapid filtration through FilterMate B glass fiber filters (PerkinElmer, USA) using a Harvester-96 MACH III FM (Tomtec, USA). The filters were gently dried in a microwave and sealed in plastic bags (PerkinElmer, USA). Each filter was then immersed in 10 mL of Ultima Gold MV liquid scintillation cocktail (PerkinElmer, USA). […] Ki values were calculated using the Cheng and Prusoff equation, and statistical analyses were conducted using GraphPad Prism (version 4.0, San Diego, CA, USA)

PAMPA permeability assay = type: in vitro ADME; conditions: PBS pH 7.4, 100 μM, zolpidem tested as tartrate; for Papp at 5 h, 100 μM: pH 7.4, PAMPA, read-out: Permeability Pe ± SD; for Permeability Pe ± SD: 5 h
Procedure: PAMPA. The precoated PAMPA Plate System Gentest, obtained from Corning (Tewksbury, MA, USA), was used for the permeability study. The system includes a 96-well receiver filter plate precoated with structured phospholipid layers and a matching donor microplate. Stock solutions of the test compounds and reference drugs were prepared in PBS buffer (pH 7.4) at a final concentration of 100 μM. Each compound solution (200 μL) was added to the donor wells and incubated at room temperature for 5 h. The quantity of molecules that penetrated from the donor wells to the acceptor wells through the phospholipid membrane was determined using UPLC-MS spectrometry (Waters ACQUITY TQD system with the TQ Detector, Waters, Milford, USA) with an internal standard. Permeability coefficients (Pe, cm/s) were calculated according to the formula provided by the manufacturer.

SH-SY5Y cells [1] = assay: PrestoBlue cell viability assay; type: cell-based; conditions: Table S2, 24 h
Procedure: Cell viability was determined using the Presto Blue reagent (ThermoFisher) following the manufacturer’s instructions.
(§1) 1. Cytotoxicity studies for selected compounds
Table S1. The viability of the cells SH-SY5Y after treatment with tested compounds for 24 the results are expressed as a percentage of dead cells with luminescence ToxiLight Assay. The results are expressed as a per cent of control with whole […]
percentage of live cells with fluorescence PrestoBlue Assay. The results are expressed as a per cent of vehicle (DMSO).

SH-SY5Y cells [2] = assay: ToxiLight assay (cell membrane damage); type: cell-based; conditions: Table S1, 24 h
Procedure: Damage to the cell membrane was assessed using the bioluminescent ToxiLight bioassay (Lonza), a profound method for detecting cell toxicity. Following 24 h of treatment, 5 μL of the supernatant above the sediment was transferred to a 384-well plate (PerkinElmer). Subsequently, 20 μL of Adenylate Kinase Detection Reagent (AKDR) was added to each well. Luminescence was recorded after a 10 min incubation period using a POLARstar Omega plate reader (BMG Labtech). Results are presented as a percentage relative to the control sample (cells lysed), reflecting the proportion of dead cells compared to the control.
as §1
Table S1. The viability of the cells SH-SY5Y after treatment with tested compounds for 24 the results are expressed as a percentage of dead cells with luminescence ToxiLight Assay. The results are expressed as a per cent of control with whole lysis cells. N.C. not countable […]
Table S2. The viability of the cells SH-SY5Y after treatment with tested compounds for 24 h the results are expressed as a percentage of live cells with fluorescence PrestoBlue Assay. The results are expressed as a per cent of vehicle (DMSO). […]

SH-SY5Y cells [3] = assay: Intracellular calcium concentration after 6-OHDA (Fluo-4); type: cell-based, human; conditions: 50 μM pretreatment 1 h, then 6-OHDA 250 μM 1 h
Procedure: 7 (A). Effect of 6-Hydroxydopamine (6-OHDA) on intracellular calcium concentration [Ca^2+] determined by Fluo-4 AM. After pretreatment with tested compounds (50 μM) or vehicle (0.5% DMSO, v/v) for 1 h, the cells were incubated with 6-Hydroxydopamine (6-OHDA, 250 μM) for 1 h. 6-OHDA control: cells treated with 250 μM of 6-OHDA. […]. DMSO control: cells treated with 0.5% DMSO only. Data are presented as the mean ± SD from 2–3 independent experiments. Experiments were carried on with ImageXpress Micro XLS (Molecular Devices). (B) The level of ROS generation was determined by Cell ROX dye. After pretreatment with tested compounds (50 μM) or vehicle (0.5% DMSO, v/v) for 1 h, the cells were incubated with hydrogen peroxide (H2O2, 300 μM) for 1 h. H2O2 control: cells treated with H2O2 (300 μM). DMSO control: cells treated with 0.5% DMSO only. Data are presented as the mean ± SD from 2–3 independent experiments. Experiments were carried on with the ImageXpress Micro XLS (Molecular Devices).
The SH-SY5Y human neuroblastoma cell line was maintained according to established protocols. The cells, obtained from the American Type Culture Collection (ATCC), were cultured in Dulbecco’s Modified Eagle’s Medium (DMEM, high glucose; Thermo Fisher), supplemented with 10% fetal bovine serum (Thermo Fisher), 100 IU/ml penicillin (Merck), and 100 μg/mL streptomycin (Merck). They were grown in 75 cm^2 flasks (Nunc) at 37 °C in a humidified atmosphere containing 5% CO2. For compound evaluation, SH-SY5Y cells were plated in 96-well plates (Falcon) at a density of 2 × 10^4 cells per well. The cells were allowed to adhere and grow for 24 h in an incubator set to 37 °C and 5% CO2 before starting the experiments. Stock solutions of both test and reference compounds were prepared at a concentration of 10^–2 M. A minimum of 1 mg of each compound was dissolved in dimethyl sulfoxide (DMSO). Serial dilutions were made in DMSO, then further diluted in PBS, mixed, and added to the cell culture medium.
The intracellular Ca^2+ levels were assessed using a homogeneous cell-based assay with the Fluo-4 Direct Calcium Assay Kit (Thermo Fisher). Following incubation with the tested compounds, the supernatant was discarded, and the cells were incubated with 1 μM Fluo-4/AM in FluoroBrite DMEM (Thermo Fisher) for 1 h at 37 °C. The results were expressed as a percentage relative to the control (DMSO). Fluorescence intensity was recorded using the ImageXpress Micro XLS system (Molecular Devices).

α1β2γ2 GABA-A receptor = biological target: T1, α1β2γ2 GABA-A receptor (Homo sapiens, UniProt P14867+P18507); assay: Electrophysiological studies (QPatch16X automated patch-clamp), PAM efficacy; type: cell-based
T1 construct: expressed in transfected cells
T1 sequence (P14867 28-456): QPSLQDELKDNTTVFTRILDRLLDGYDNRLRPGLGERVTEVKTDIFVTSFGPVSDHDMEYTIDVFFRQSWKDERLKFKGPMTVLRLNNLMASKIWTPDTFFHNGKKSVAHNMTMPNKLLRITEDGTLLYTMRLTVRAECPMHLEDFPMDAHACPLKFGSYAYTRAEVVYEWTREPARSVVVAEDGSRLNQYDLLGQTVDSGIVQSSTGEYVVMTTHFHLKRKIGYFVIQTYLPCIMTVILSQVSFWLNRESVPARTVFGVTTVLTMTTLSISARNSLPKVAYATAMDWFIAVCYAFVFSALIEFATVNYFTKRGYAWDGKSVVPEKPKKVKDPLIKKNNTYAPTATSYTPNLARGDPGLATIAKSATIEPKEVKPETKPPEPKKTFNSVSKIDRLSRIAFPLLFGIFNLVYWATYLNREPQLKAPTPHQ
T1 sequence (P47870 25-512 partner limits assumed): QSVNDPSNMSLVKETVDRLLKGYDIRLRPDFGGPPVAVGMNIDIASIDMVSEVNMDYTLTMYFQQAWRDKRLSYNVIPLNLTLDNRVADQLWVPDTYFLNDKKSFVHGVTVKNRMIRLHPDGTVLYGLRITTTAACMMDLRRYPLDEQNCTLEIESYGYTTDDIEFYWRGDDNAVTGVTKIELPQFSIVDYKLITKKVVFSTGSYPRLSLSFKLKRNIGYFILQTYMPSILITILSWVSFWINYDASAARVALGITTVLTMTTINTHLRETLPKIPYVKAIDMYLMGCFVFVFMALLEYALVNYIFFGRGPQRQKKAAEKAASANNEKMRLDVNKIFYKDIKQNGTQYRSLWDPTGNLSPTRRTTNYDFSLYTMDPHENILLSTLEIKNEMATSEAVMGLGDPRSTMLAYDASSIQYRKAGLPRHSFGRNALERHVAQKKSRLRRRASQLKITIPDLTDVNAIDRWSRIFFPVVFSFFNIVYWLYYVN
T1 sequence (P18507 40-475): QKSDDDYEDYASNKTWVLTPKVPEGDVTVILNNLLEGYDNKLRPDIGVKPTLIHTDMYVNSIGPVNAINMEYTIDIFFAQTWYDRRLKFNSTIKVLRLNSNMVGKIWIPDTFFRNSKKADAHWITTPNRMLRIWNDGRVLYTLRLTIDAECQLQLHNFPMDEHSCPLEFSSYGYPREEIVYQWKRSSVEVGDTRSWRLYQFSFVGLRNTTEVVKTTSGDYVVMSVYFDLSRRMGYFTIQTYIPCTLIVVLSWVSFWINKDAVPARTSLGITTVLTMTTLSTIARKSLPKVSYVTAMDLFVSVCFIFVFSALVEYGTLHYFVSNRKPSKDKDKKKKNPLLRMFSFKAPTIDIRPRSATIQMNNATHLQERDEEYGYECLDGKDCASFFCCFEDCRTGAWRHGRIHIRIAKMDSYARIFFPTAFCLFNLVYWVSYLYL

Cc1ccc2nc(-c3ccc(F)cc3)c(CC(=O)N3CCN(C)CC3)n2c1 [Compound 4, 2-[2-(4-Fluorophenyl)-6-methylimidazo[1,2-a]pyridin-3-yl]-1-(4-methylpiperazin-1-yl)ethan-1-one formate salt]
Ki (GABA-A receptor): 0.278 ± 0.043 µM

Cc1ccc2nc(-c3ccc(F)cc3)c(CC(=O)N3CCNCC3)n2c1 [Compound 5, 2-[2-(4-Fluorophenyl)-6-methylimidazo[1,2-a]pyridin-3-yl]-1-(piperazin-1-yl)ethan-1-one]
Papp at 5 h, 100 μM (PAMPA permeability assay): 3.35 ± 0.4 ×10⁻⁶ cm/s

Cc1ccc2nc(-c3ccc(F)cc3)c(CC(=O)N3CCC(C)CC3)n2c1 [Compound 7, 2-[2-(4-Fluorophenyl)-6-methylimidazo[1,2-a]pyridin-3-yl]-1-(4-methylpiperidin-1-yl)ethan-1-one]
Ki (GABA-A receptor): 0.204 ± 0.0206 µM

Cc1ccc2nc(-c3ccc(F)cc3)c(CC(=O)N3CCN(C(C)C)CC3)n2c1 [Compound 8, 2-[2-(4-Fluorophenyl)-6-methylimidazo[1,2-a]pyridin-3-yl]-1-[4-(propan-2-yl)piperazin-1-yl]ethan-1-one]
Ki (GABA-A receptor): 5.23 ± 0.511 µM

Cc1ccc2nc(-c3ccc(F)cc3)c(CC(=O)N3CCN(C4CC4)CC3)n2c1 [Compound 9, 1-(4-Cyclopropylpiperazin-1-yl)-2-[2-(4-fluorophenyl)-6-methylimidazo[1,2-a]pyridin-3-yl]ethan-1-one]
Ki (GABA-A receptor): 1.34 ± 0.046 µM

Cc1ccc2nc(-c3ccc(F)cc3)c(CC(=O)N3CCN(CC(C)C)CC3)n2c1 [Compound 10, 2-[2-(4-Fluorophenyl)-6-methylimidazo[1,2-a]pyridin-3-yl]-1-[4-(2-methylpropyl)piperazin-1-yl]ethan-1-one]
Ki (GABA-A receptor): 3.33 ± 0.373 µM

Cc1ccc2nc(-c3ccc(F)cc3)c(CC(=O)N3CCN(C(C)(C)C)CC3)n2c1 [Compound 11, 1-(4-tert-Butylpiperazin-1-yl)-2-[2-(4-fluorophenyl)-6-methylimidazo[1,2-a]pyridin-3-yl]ethan-1-one]
Ki (GABA-A receptor): 7.82 ± 1.72 µM

Cc1ccc2nc(-c3ccc(F)cc3)c(CC(=O)N3CC4CCCCC4C3)n2c1 (stereo not shown) [Compound 12, 2-[2-(4-Fluorophenyl)-6-methylimidazo[1,2-a]pyridin-3-yl]-1-(octahydro-1H-isoindol-2-yl)ethan-1-one]
Ki (GABA-A receptor): 0.517 ± 0.0612 µM

Cc1ccc2nc(-c3ccc(F)cc3)c(CC(=O)N3CCCCCC3)n2c1 [Compound 13, 1-(Azepan-1-yl)-2-(2-(4-fluorophenyl)-6-methylimidazo[1,2-a]pyridin-3-yl)ethan-1-one]
Ki (GABA-A receptor): 0.453 ± 0.0593 µM

Cc1ccc2nc(-c3ccc(F)cc3)c(CC(=O)N3CCSC3(C)C)n2c1 [Compound 14, 1-(2,2-Dimethyl-1,3-thiazolidin-3-yl)-2-[2-(4-fluorophenyl)-6-methylimidazo[1,2-a]pyridin-3-yl]ethan-1-one]
Ki (GABA-A receptor): 0.551 µM

Cc1ccc2nc(-c3ccc(F)cc3)c(CC(=O)N3CCSC3)n2c1 [Compound 15, 2-[2-(4-Fluorophenyl)-6-methylimidazo[1,2-a]pyridin-3-yl]-1-(1,3-thiazolidin-3-yl)ethan-1-one]
X [%], percentage of live cells, PrestoBlue Assay (per cent of vehicle DMSO) (SH-SY5Y cells [1]; 1E-04 M): 14%
X [%], percentage of live cells, PrestoBlue Assay (per cent of vehicle DMSO) (SH-SY5Y cells [1]; 1E-05 M): 12%
X [%], percentage of live cells, PrestoBlue Assay (per cent of vehicle DMSO) (SH-SY5Y cells [1]; 1E-06 M): 16%
X [%], percentage of live cells, PrestoBlue Assay (per cent of vehicle DMSO) (SH-SY5Y cells [1]; 1E-07 M): 14%
X [%], percentage of live cells, PrestoBlue Assay (per cent of vehicle DMSO) (SH-SY5Y cells [1]; 1E-08 M): 15%
X [%], percentage of live cells, PrestoBlue Assay (per cent of vehicle DMSO) (SH-SY5Y cells [1]; 1E-09 M): 14%
X [%], percentage of live cells, PrestoBlue Assay (per cent of vehicle DMSO) (SH-SY5Y cells [1]; 3E-05 M): 15%
X [%], percentage of live cells, PrestoBlue Assay (per cent of vehicle DMSO) (SH-SY5Y cells [1]; 3E-06 M): 15%
X [%], percentage of dead cells, ToxiLight Assay (per cent of control with whole lysis cells) (SH-SY5Y cells [2]; 1E-04 M): 67%
X [%], percentage of dead cells, ToxiLight Assay (per cent of control with whole lysis cells) (SH-SY5Y cells [2]; 1E-05 M): 108%
X [%], percentage of dead cells, ToxiLight Assay (per cent of control with whole lysis cells) (SH-SY5Y cells [2]; 1E-06 M): 110%
X [%], percentage of dead cells, ToxiLight Assay (per cent of control with whole lysis cells) (SH-SY5Y cells [2]; 1E-07 M): 107%
X [%], percentage of dead cells, ToxiLight Assay (per cent of control with whole lysis cells) (SH-SY5Y cells [2]; 1E-08 M): 108%
X [%], percentage of dead cells, ToxiLight Assay (per cent of control with whole lysis cells) (SH-SY5Y cells [2]; 1E-09 M): 101%
X [%], percentage of dead cells, ToxiLight Assay (per cent of control with whole lysis cells) (SH-SY5Y cells [2]; 3E-05 M): 96%
X [%], percentage of dead cells, ToxiLight Assay (per cent of control with whole lysis cells) (SH-SY5Y cells [2]; 3E-06 M): 105%
Permeability Pe ± SD (PAMPA permeability assay): 7.89 ± 1.35 ·10^–6 cm/s
Papp at 5 h, 100 μM (PAMPA permeability assay): > 4 ×10⁻⁶ cm/s
Reduction of intracellular calcium levels (SH-SY5Y cells [3]): ≤ 50%
EC50 (α1β2γ2 GABA-A receptor): 0.743 ± 0.136 µM

Cc1ccc2nc(-c3ccc(F)cc3)c(CC(=O)NC3CCNC3)n2c1 (stereo not shown) [Compound 16, 2-[2-(4-Fluorophenyl)-6-methylimidazo[1,2-a]pyridin-3-yl]-N-(pyrrolidin-3-yl)acetamide]
Papp at 5 h, 100 μM (PAMPA permeability assay): 0.154 ± 0.005 ×10⁻⁶ cm/s
Ki (GABA-A receptor): < 0.2 µM and 0.14 µM

CN1C(=O)CN=C(c2ccccc2)c2cc(Cl)ccc21 [diazepam, reference compound]
Ki (GABA-A receptor): 0.0056 ± 0.0007 µM

CCN1CCCC1CNC(=O)c1cc(S(N)(=O)=O)ccc1OC (stereo not shown) [sulpiride, reference compound]
Permeability Pe ± SD (PAMPA permeability assay): 0.016 ± 0.003 ·10^–6 cm/s
